Measurements from ChEMBL document CHEMBL1201862, “PubChem BioAssay data set” (2004).
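Each compound was tested at five concentrations against cells in 96-well plates for 48 hours. Abbreviation: GI50, concentration required for 50% inhibition of growth.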 The source made the active and inactive calls. Cut-off read from the data, not from the text of the source: active = GI50 up to about 1.1 µM and inactive = higher.

Assays:
Experiment in all cases: NCI tumour cell line growth inhibition, 48 h
[1] = test system: CAKI-1
[2] = test system: EKVX
[3] = test system: MOLT-4
[4] = test system: UACC-257
[5] = test system: SK-MEL-5
[6] = test system: UO-31
[7] = test system: Malme-3M
[8] = test system: 786-0
[9] = test system: HOP-92
[10] = test system: NCI-H23
[11] = test system: HOP-62
[12] = test system: SNB-75
[13] = test system: HL-60
[14] = test system: HCT-116
[15] = test system: K562
[16] = test system: OVCAR-5

Measured: GI50

O=S(=O)(C/C(=N\O)c1ccccc1)c1ccccc1
inactive: [1] > 100 µM | [2] > 100 µM | [3] > 100 µM | [4] > 100 µM | [5] > 100 µM | [6] > 100 µM | [7] > 100 µM | [8] > 100 µM | [9] > 100 µM | [10] > 100 µM | [11] > 100 µM | [12] > 100 µM | [13] > 100 µM | [14] > 100 µM | [15] > 100 µM | [16] > 100 µM

Cn1cc(C(=O)c2ccccc2)cc(C(=O)c2ccccc2)c1=O
inactive: [1] > 100 µM | [2] > 100 µM | [3] > 100 µM | [4] > 100 µM | [5] > 100 µM | [6] > 100 µM | [7] > 100 µM | [8] > 100 µM | [9] > 100 µM | [10] > 100 µM | [11] > 100 µM | [12] > 100 µM | [13] > 100 µM | [15] > 100 µM | [16] > 100 µM

CCC1CN2CCc3cc(OC)c(OC)cc3C2CC1CC1c2cc(OC)c(OC)cc2CCN1C(=O)CNC(=O)OC(C)(C)C (configuration not stated)
inactive: [1] 21.7 µM | [2] 5.05 µM | [3] 3.44 µM | [4] 21.4 µM | [5] 6 µM | [6] 24.4 µM | [7] 19.5 µM | [8] 4.08 µM | [10] 21.4 µM | [12] 20.9 µM | [13] 4.14 µM | [15] 3.34 µM | [16] 24.3 µM

COc1ccc(NC(=O)/C(=N/O)C(C)=O)cc1
inactive: [1] > 100 µM | [2] > 100 µM | [3] > 100 µM | [4] > 100 µM | [5] > 100 µM | [6] > 100 µM | [7] > 100 µM | [8] 45.1 µM | [9] > 100 µM | [10] > 100 µM | [11] > 100 µM | [12] > 100 µM | [13] > 100 µM | [14] 96.8 µM | [15] 47.5 µM | [16] > 100 µM

Cc1nc(Nc2ccc(Cl)cc2)sc1C(=O)Nc1cccc2c(=O)[nH][nH]c(=O)c12
inactive: [1] 33.2 µM | [2] 8.34 µM | [3] 19 µM | [4] 96.8 µM | [5] 2.52 µM | [6] 31.8 µM | [7] 36 µM | [8] 19 µM | [9] 13.3 µM | [10] 16.4 µM | [11] 35.6 µM | [12] 28 µM | [13] 8.75 µM | [14] 24 µM | [15] 1.26 µM | [16] 36.9 µM

COc1cccc(C2CC23C(=O)NC(=O)NC3=O)c1 (configuration not stated)
inactive: [1] > 100 µM | [2] > 100 µM | [3] > 100 µM | [4] > 100 µM | [5] > 100 µM | [6] > 100 µM | [7] > 100 µM | [8] > 100 µM | [9] > 100 µM | [10] > 100 µM | [11] > 100 µM | [13] > 100 µM | [14] > 100 µM | [15] > 100 µM | [16] > 100 µM

Cc1cccc2c1Sc1ccccc1C2NC(=O)CCN(C)C (configuration not stated)
inactive: [2] > 100 µM | [3] > 100 µM | [4] > 100 µM | [5] > 100 µM | [6] > 100 µM | [8] > 10 µM | [10] > 100 µM | [11] > 100 µM | [12] 96.4 µM | [13] > 100 µM | [14] > 100 µM | [15] > 100 µM | [16] > 100 µM

CCOC(=O)/C(=C/c1cccc(Cl)c1)N(CC)CC
inactive: [1] 50.5 µM | [2] 55.7 µM | [3] 87.7 µM | [4] 55.8 µM | [5] 41.1 µM | [6] 37.1 µM | [7] 57.3 µM | [8] 67.9 µM | [9] 25.5 µM | [10] 27.7 µM | [11] 29.9 µM | [12] 70.5 µM | [13] 49.2 µM | [14] 37.4 µM | [15] 52.2 µM | [16] > 100 µM

COc1ccc(/C=C2\C(=O)N(C(=O)Cc3ccccc3)N=C2C)cc1OC
inactive: [1] > 100 µM | [2] > 100 µM | [3] > 100 µM | [4] > 100 µM | [6] > 100 µM | [7] > 100 µM | [8] > 100 µM | [10] > 100 µM | [11] > 100 µM | [12] > 100 µM | [13] > 100 µM | [14] > 100 µM | [15] > 100 µM | [16] > 100 µM

CC(C)c1ccccc1NC(=O)C(=O)Cc1nc2ccccc2s1
inactive: [1] > 100 µM | [2] > 100 µM | [3] > 100 µM | [4] > 100 µM | [5] > 100 µM | [6] > 100 µM | [7] > 100 µM | [8] > 100 µM | [9] > 100 µM | [10] > 100 µM | [11] > 100 µM | [12] > 100 µM | [13] > 100 µM | [14] > 100 µM

c1ccc2c(c1)cc1n2CC2CN=NC12 (configuration not stated)
inactive: [1] > 100 µM | [2] > 100 µM | [3] > 100 µM | [4] > 100 µM | [5] > 100 µM | [6] > 100 µM | [7] > 100 µM | [8] > 100 µM | [11] > 100 µM | [12] 47.8 µM | [13] > 100 µM | [14] > 100 µM | [15] > 100 µM | [16] > 100 µM

COC(=O)C(=Cc1cc(OC)c(OC)c(OC)c1-c1cc2c(cc1C1(C)OCCS1)OCO2)C(=O)OC (configuration not stated)
inactive: [1] 19.3 µM | [2] 35.6 µM | [3] 24 µM | [4] 31.4 µM | [5] 26.4 µM | [7] 37.3 µM | [8] 38.8 µM | [9] 3.5 µM | [10] 19.8 µM | [11] 29.2 µM | [13] 24.9 µM | [14] 24.6 µM | [15] 33.6 µM | [16] > 100 µM

CC1(C)Oc2ccccc2[N+]([O-])=C1c1ccccc1
inactive: [1] > 100 µM | [3] > 100 µM | [4] > 100 µM | [5] > 100 µM | [6] > 100 µM | [7] > 100 µM | [8] > 100 µM | [9] > 100 µM | [10] > 100 µM | [11] > 100 µM | [12] > 100 µM | [13] > 100 µM | [14] > 100 µM | [15] > 100 µM

NNC(=S)N/N=C(/C(=O)Nc1ccc([N+](=O)[O-])cc1)c1nc2ccc([N+](=O)[O-])cc2nc1O
inactive: [1] > 100 µM | [2] > 100 µM | [3] > 100 µM | [4] > 100 µM | [5] 45.5 µM | [6] > 100 µM | [7] > 100 µM | [8] > 100 µM | [9] > 100 µM | [10] > 100 µM | [12] > 100 µM | [13] 52.8 µM | [14] > 100 µM | [15] > 100 µM | [16] > 100 µM

Nc1nc(SCCC/C=C/I)nc2c1ncn2C1OC(CO)C(O)C1O (configuration not stated)
inactive: [1] > 202 µM | [3] 99.5 µM | [4] > 202 µM | [5] > 202 µM | [6] > 202 µM | [7] > 202 µM | [8] > 202 µM | [9] > 202 µM | [10] > 202 µM | [11] > 202 µM | [12] 78.9 µM | [13] > 202 µM | [14] > 202 µM | [15] > 202 µM | [16] > 202 µM

C#Cc1c(C)c(/C=C/C(C)=C\C(=O)OC)n(C)c1C
inactive: [1] > 100 µM | [2] > 100 µM | [3] 7.06 µM | [4] > 100 µM | [6] 63.4 µM | [7] > 100 µM | [8] 55.1 µM | [9] > 100 µM | [10] > 100 µM | [11] 71.1 µM | [13] 6.65 µM | [15] 8.97 µM | [16] > 100 µM

O=C1OC(=O)c2c1c(-c1ccccc1)nc1ccccc21
inactive: [1] > 100 µM | [2] > 100 µM | [3] > 100 µM | [4] > 100 µM | [5] > 100 µM | [6] > 100 µM | [7] > 100 µM | [8] > 100 µM | [10] > 100 µM | [11] > 100 µM | [12] > 100 µM | [13] > 100 µM | [14] > 100 µM | [15] > 100 µM

C=C(CCCCC)CN1CCCC1C(C)=O (configuration not stated)
inactive: [1] 34.7 µM | [2] 35 µM | [3] 8.75 µM | [4] 26.6 µM | [5] 17.9 µM | [6] 31.4 µM | [7] 41.8 µM | [8] 35.5 µM | [9] 20.3 µM | [10] 17.4 µM | [11] 22.3 µM | [12] 24.7 µM | [13] 4.32 µM | [14] 27.6 µM | [15] 15 µM | [16] 22.2 µM

CC(C1=CC=C2[C@@H]3CCC4CC(N(C)C)CC[C@]4(C)C3CC[C@]12C)N(C)C=O (some centres not stated)
inactive: [1] > 100 µM | [3] > 100 µM | [5] > 100 µM | [6] > 100 µM | [7] > 100 µM | [8] > 100 µM | [9] > 100 µM | [10] > 100 µM | [11] > 100 µM | [12] 52.8 µM | [13] > 100 µM | [14] > 100 µM | [15] 36.1 µM | [16] > 100 µM
